This note sets out measurements from patent US10774080B2, “Pyrimidine compound as JAK kinase inhibitor” (THERAVANCE BIOPHARMA R&D IP, LLC, priority 2017, dated 2020).

For data set [1], the system named is BEAS-2B human lung epithelial cells. It counts as cell-based. As to conditions: 48 h. The procedure: Assay 3: Cytotoxicity Assay A CellTiter-Glo luminescent cell viability/cytotoxicity assay was carried out in BEAS-2B human lung epithelial cells (ATCC) under the normal growth condition. […] On day 1 of the assay, cells were seeded at a 500 cells/well density in white 384-well tissue culture plates (Corning) with 25 μL medium, and were allowed to adhere overnight in the incubator. On day 2 of the assay, 5 μL of medium containing dose-responses of test compounds was added, and incubated at 37° C. for 48 h. 30 μL of CellTiter-Glo detection solution (Promega) was subsequently added, mixed on an orbital shaker for 5 min, and incubated for additional 10 min before being read on the EnVision reader. Luminescence signals were recorded and percent DMSO control values were calculated. For dose-response analysis, percent DMSO control data were plotted vs. compound concentrations to derive dose-response curves by line connecting each data point. […] Results were expressed as the negative logarithm of the CC15 value, pCC15. […] The pCC15 for compound (I) was 5.36.

A short description of data set [2]: Assay 5: rat pharmacokinetics. Format: in vivo, male Sprague Dawley rats. As to conditions: male, Sprague Dawley. How it is done: Assay 5: Rat Pharmacokinetics Assay The objective of this study was to assess the pharmacokinetics of compound (I) in plasma following single oral (PO, n=3) or intravenous (IV, n=2) administration to male Sprague Dawley rats. Three male Sprague Dawley rats were administered a single IV dose of compound (I) (1.0 mg/kg in 5% DMSO+20 mM Citrate buffer pH4) via a jugular vein catheter or a single PO dose of 5 mg/kg via oral gavage (5.0 mg/kg in 1% HPMC with 0.1% Tween80). At 0.25, 0.5, 1, 2, 4, 6, and 24 hours after dose administration blood samples were drawn via jugular vein catheter into EDTA tubes and maintained chilled on ice prior to centrifugation (12,000 rpm, 4 min, 4° C.). Aliquots of plasma were transferred to cluster tubes and stored frozen (−80° C.) prior to bioanalysis. Plasma samples were vortexed prior to transferring a 50 μL aliquot of sample to a 96-well plate and extracted with 200 μL acetonitrile containing an internal standard. Following extraction, samples were centrifuged for 10 min at 3700 RPM (2809×g). The supernatant was transferred to a new 96-well plate and then diluted in 0.2% formic acid in water (3-fold dilution). For all samples, 10 μL was injected onto a Waters Xbridge (C18 30×2.1 mm) column with a flow rate of 0.80 mL/min. Mobile phase A consisted of 0.2% formic acid in water and mobile phase B 0.2% formic acid in acetonitrile. Plasma levels of compound (I) were determined by LC-MS-MS analysis. Standard PK parameters were determined using Phoenix WinNonlin, (Certara Inc.).

Data set [3] can be described thus: Assay 9: skin tissue concentration in mice. Format: in vivo. As to conditions: Balb/c, mouse, topical ointment 25 μl/cm^2, biopsy one hour after IL-31. An excerpt:
The JAK/STAT (janus kinase/signal transducer and activator of transcription) signaling pathway is a key element in the communication between immune cells and is mainly activated through cytokine receptors. Binding of cytokine IL-31 leads to the activation and phosphorylation of JAK1/JAK2 tyrosine kinases which in turn leads to the phosphorylation of STAT3 (pSTAT3). The activated STAT then translocates into the nucleus and directly regulates the transcription of cytokine-sensitive genes. In these studies, Balb/c mice were dosed with an ointment formulation of compound (I). Ointment vehicle (Table 9) or compound (I) formulated in the ointment vehicle was applied topically to shaved skin (25 μl/cm^2) 30 minutes before the intradermal injection (50 μl/1×1 cm2 site) of IL-31 (1 μg/ml) at a 1×1 cm^2 shaved area of skin on the back between the ears. One hour after IL-31, skin biopsies were collected. The tissue samples were flash frozen and analyzed for pSTAT3 by ELISA and compound concentration. Compound (I) inhibited pSTAT3 production by 80% and the skin tissue concentration of compound (I) was 62 μM.

For data set [4], the system named is IL-13 stimulated STAT6 phosphorylation in normal human epidermal keratinocytes. In words: Assay 13: inhibition of IL-13 stimulated pSTAT6 in normal human epidermal keratinocytes. Format: cell-based. Conditions: Keratinocyte, read-out: pIC50 for inhibition of IL-13 induced STAT6 phosphorylation (converted). The procedure: Assay 13: Inhibition of IL-13 Stimulated pSTAT6 in Normal Human Epidermal Keratinocytes
The potency of test compounds for inhibition of interleukin-13 (IL-13) stimulated STAT6 phosphorylation was measured in the normal human epidermal keratinocytes (ATCC) using AlphaLisa. Phosphorylated STAT6 was measured via the AlphaLISA SureFire Ultra pSTAT6 (Tyr641) kit (PerkinElmer).
Primary epidermal keratinocytes were cultured in a 37° C., 5% CO2 humidified incubator in dermal cell basal medium (ATCC) supplemented with keratinocyte growth kit (ATCC) and 1× Pen/Strep (Life Technologies). […]
After cytokine stimulation, cells were lysed with 5 ul of 5× AlphaLisa Lysis Buffer (PerkinElmer) containing 1× PhosStop and Complete tablets (Roche). […] Phosphorylated STAT6 was measured via the pSTAT6 AlphaLisa kit (PerkinElmer). […] Luminescence was measured with excitation at 689 nm and emission at […] using an EnVision plate reader (PerkinElmer) under green filtered <100 lux light.
Luminescence signals were recorded and utilized to calculate the percent inhibition values based on DMSO and controls. For dose-response analysis, percent inhibition data were plotted vs. compound concentrations, and IC50 values were determined from a 4-parameter robust fit model with the Prism software.

For data set [5] the following is noted: Hanford, minipig, in vivo.
Protocol: Assay 6: Dermal Pharmacokinetics in Hanford Mini-Pig Skin
The objective of this Study was to determine the epidermal, dermal and plasma pharmacokinetics of compound (I) following a 24 hour exposure to intact Hanford mini-pig skin.
Twenty-four hours prior to dosing, the hair was shaved from the back of 10-15 kg Hanford mini-pigs exposing an area of at least 700 cm^2 (about 10% of body surface). At time zero, compound (I) was applied to the back of the mini-pigs at a dose of 25 μL/cm^2. The skin was covered with an adhesive cover to prevent loss of compound to the cage or bedding. Following 24 h exposure, the backs were gently washed with soap and water to remove non-absorbed drug and patted dry. Immediately following this washing, blood was drawn by venipuncture from the mini-pigs. The outer skin (stratum corneum) was then removed by adhesive tape stripping. Upon exposure of the epidermis a 0.5 cm punch biopsy was taken. The epidermis and dermis were quickly separated, weighed and snap frozen. Similar samples were taken at 94 h, and 168 h (7 days) post-dosing in mini-pigs. Epidermis and dermis samples were homogenized in 1:10 (w/v) water using a Covaris ultrasonic homogenizer. Samples were extracted in 3 volumes of acetonitrile and quantified against a standard curve via LC-MS analysis.

SMILES strings stand for the structures. Some results are limits rather than exact numbers.

For `CCS(=O)(=O)N1[C@@H]2CCC[C@H]1C[C@H](N(C)c1nc(CO)c(F)c(Nc3cc(C)[nH]n3)n1)C2` [Compound (I), (2-(((1R,3s,5S)-9-(ethylsulfonyl)-9-azabicyclo[3.3.1]nonan-3-yl)(methyl)amino)-5-fluoro-6-((5-methyl-1H-pyrazol-3-yl)amino)pyrimidin-4-yl)methanol], in data set [1], the pCC15 came out at 5.36. Also, in data set [2] (plasma, rat, IV (1 mg/kg)), the clearance (as a rule, a measure of how efficiently the substance is removed, as volume per time) is 59 mL/min/kg. In addition, the Vd in data set [2] (plasma, rat, IV (1 mg/kg), read-out: Vdss) turned out to be 1.1 L/kg. In addition, the bioavailability (as a rule, dose-corrected exposure relative to a reference, in per cent) in data set [2] (plasma, rat, PO (5 mg/kg)) stood at 7.7%. The AUC(0-t) (in general, exposure summed from dosing to a finite time, without extrapolation to infinity) in data set [2] (rat plasma, IV (1 mg/kg)) turned out to be 291 ng·h/mL; in data set [2] (rat plasma, PO (5 mg/kg)), 112 ng·h/mL. The Cmax (as a rule, the peak of the concentration-time curve) in data set [2] (rat plasma, IV (1 mg/kg)) is 907 ng/mL; in data set [2] (rat plasma, PO (5 mg/kg)) it was 77 ng/mL. In data set [2] (rat plasma, IV (1 mg/kg), read-out: T½ (converted)), the half-life is 80.4 min. The compound also displayed a concentration at 1.5 h in data set [3] of 62 µM. Besides, the IC50 in data set [4] is 5.01 nM. For the same compound, the “plasma exposure (below the limit of quantitation)” value in data set [5] was less than 0.001 µg/mL.
